Measured values published in patent US8563505B2, “Hepatitis C virus inhibitors” (priority 2008, dated 2013).

Assays:
[1] = target: T1, HCV NS3/4A protease complex (Hepatitis C virus genotype 1a, UniProt P27958, C1454S/C1711G); experiment: FRET peptide assay to monitor HCV NS3/4A proteolytic activity; type: biochemical; details: NS3/4A strain not stated
T1 construct: DNA encoding the recombinant HCV NS3/4A protease complex (amino acids 1027 to 1711) for these strains; inferred from pET21b vector and Ni-NTA purification) (C); made in house; host or cells: Escherichia coli BL21 (DE3), pET21b
T1 sequence (P27958 1027-1711 C1454S/C1711G, one chain of several): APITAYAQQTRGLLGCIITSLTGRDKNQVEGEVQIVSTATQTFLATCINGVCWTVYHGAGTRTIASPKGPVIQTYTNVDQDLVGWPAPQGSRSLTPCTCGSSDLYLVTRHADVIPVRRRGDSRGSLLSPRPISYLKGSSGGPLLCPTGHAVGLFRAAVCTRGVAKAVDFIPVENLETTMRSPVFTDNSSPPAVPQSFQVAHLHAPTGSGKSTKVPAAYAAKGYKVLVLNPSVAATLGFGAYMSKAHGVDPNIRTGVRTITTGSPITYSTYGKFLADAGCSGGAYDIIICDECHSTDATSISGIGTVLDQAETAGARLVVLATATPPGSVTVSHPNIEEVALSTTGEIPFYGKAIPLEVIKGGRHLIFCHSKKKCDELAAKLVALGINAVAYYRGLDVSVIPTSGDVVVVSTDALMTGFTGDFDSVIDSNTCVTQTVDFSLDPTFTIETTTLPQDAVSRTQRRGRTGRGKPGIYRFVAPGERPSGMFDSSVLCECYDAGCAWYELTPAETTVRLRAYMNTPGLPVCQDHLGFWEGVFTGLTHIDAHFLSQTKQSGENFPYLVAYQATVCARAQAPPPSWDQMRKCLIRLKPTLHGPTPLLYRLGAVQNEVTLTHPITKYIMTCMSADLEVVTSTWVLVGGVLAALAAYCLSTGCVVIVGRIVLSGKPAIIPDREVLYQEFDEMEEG
From the text: HCV NS3 protease complexes, derived from the BMS strain, H77 strain or J4L6S strain, were generated, as described below. These purified recombinant proteins were generated for use in a homogeneous assay (see below) to provide an indication of how effective compounds of the present disclosure would be in inhibiting HCV NS3 proteolytic activity.
The H77 and J4L6S strains were used for production of recombinant NS3/4A protease complexes. DNA encoding the recombinant HCV NS3/4A protease complex (amino acids 1027 to 1711) for these strains was manipulated as described by P. Gallinari et al. (see Gallinari P, Paolini C, Brennan D, Nardi C, Steinkuhler C, De Francesco R. Biochemistry. 38(17):5620-32, (1999)). Briefly, a three-lysine solubilizing tail was added at the 3′-end of the NS4A coding region. The cysteine in the P1 position of the NS4A-NS4B cleavage site (amino acid 1711) was changed to a glycine to avoid the proteolytic cleavage of the lysine tag. Furthermore, a cysteine to serine mutation was introduced by PCR at amino acid position 1454 to prevent the autolytic cleavage in the NS3 helicase domain. The variant DNA fragment was cloned in the pET21b bacterial expression vector (Novagen) and the NS3/4A complex was expressed in Escherichia coli strain BL21 (DE3) (Invitrogen) following the protocol described by P. Gallinari et al. (see Gallinari P, Brennan D, Nardi C, Brunetti M, Tomei L, Steinkuhler C, De Francesco R., J Virol. 72(8):6758-69 (1998)) with modifications. Briefly, the NS3/4A protease complex expression was induced with 0.5 millimolar (mM) Isopropyl β-D-1-thiogalactopyranoside (IPTG) for 22 hours (h) at 20° C. A typical fermentation (1 Liter (L)) yielded approximately 10 grams (g) of wet cell paste. The cells were resuspended in lysis buffer (10 mL/g) consisting of 25 mM N-(2-Hydroxyethyl)Piperazine-N′-(2-Ethane Sulfonic acid) (HEPES), pH 7.5, 20% glycerol, 500 mM Sodium Chloride (NaCl), 0.5% Triton X-100, 1 microgram/milliliter ([…]) lysozyme, 5 mM Magnesium Chloride (MgCl2), 1 μg/ml DnaseI, 5 mM […] (βME), Protease inhibitor-Ethylenediamine Tetraacetic acid (EDTA) free (Roche), homogenized and incubated for 20 minutes (min) at 4° C. The homogenate was sonicated and clarified by ultra-centrifugation at 235000 g for 1 hour (h) at 4° C. Imidazole was added to the supernatant to a final concentration of 15 mM and the pH adjusted to 8.0. The crude protein extract was loaded on a Nickel-Nitrilotriacetic acid (Ni-NTA) column pre-equilibrated with buffer B (25 mM HEPES, pH 8.0, 20% glycerol, 500 mM NaCl, 0.5% Triton X-100, 15 mM imidazole, 5 mM βME). The sample was loaded at a flow rate of 1 mL/min. The column was washed with 15 column volumes of buffer C (same as buffer B except with 0.2% Triton X-100). The protein was eluted with 5 column volumes of buffer D (same as buffer C except with 200 mM Imidazole).
NS3/4A protease complex-containing fractions were pooled and loaded on a desalting column Superdex-S200 pre-equilibrated with buffer D (25 mM HEPES, pH 7.5, 20% glycerol, 300 mM NaCl, 0.2% Triton X-100, 10 mM (βME). Sample was loaded at a flow rate of 1 mL/min. NS3/4A protease complex-containing fractions were pooled and concentrated to approximately 0.5 mg/ml. The purity of the NS3/4A protease complexes, derived from the BMS, H77 and J4L6S strains, were judged to be greater than 90% by SDS-PAGE and mass spectrometry analyses. The enzyme was stored at −80° C., thawed on ice and diluted prior to use in assay buffer.
The purpose of this in vitro assay was to measure the inhibition of HCV NS3 protease complexes, derived from the BMS strain, H77 strain or J4L6S strain, as described above, by compounds of the present disclosure. This assay provides an indication of how effective compounds of the present disclosure would be in inhibiting HCV NS3 proteolytic activity.
In order to monitor HCV NS3/4A protease activity, an NS3/4A peptide substrate was used. […]

[2] = test system: HCV replicon in HUH-7 cells; experiment: HCV replicon assay (FRET, confirmed by luciferase reporter); type: cell-based, Hepatitis C virus (strain 1b); details: Hepatitis C virus, 96 h, HUH-7 replicon cells, 4 days
From the text: An HCV replicon whole cell system was established as described by Lohmann V, Korner F, Koch J, Herian U, Theilmann L, Bartenschlager R., Science 285(5424):110-3 (1999). This system enabled us to evaluate the effects of our HCV Protease compounds on HCV RNA replication. Briefly, using the HCV strain 1b sequence described in the Lohmann paper (Assession number: AJ238799), an HCV cDNA was synthesized by Operon Technologies, Inc. (Alameda, Calif.), and the full-length replicon was then assembled in plasmid pGem9zf(+) (Promega, Madison, Wis.) using standard molecular biology techniques. The replicon consists of (i) the HCV 5′ UTR fused to the first 12 amino acids of the capsid protein, (ii) the neomycin phosphotransferase gene (neo), (iii) the IRES from encephalomyocarditis virus (EMCV), and (iv) HCV NS3 to NS5B genes and the HCV 3′ UTR. Plasmid DNAs were linearized with Seal and RNA transcripts were synthesized in vitro using the T7 MegaScript transcription kit (Ambion, Austin, Tex.) according to manufacturer's directions. In vitro transcripts of the cDNA were transfected into the human hepatoma cell line, HUH-7. […] Resulting cell lines were characterized for positive and negative strand RNA production and protein production over time.
The HCV replicon FRET assay was developed to monitor the inhibitory effects of compounds described in the disclosure on HCV viral replication. HUH-7 cells, constitutively expressing the HCV replicon, were grown in Dulbecco's Modified Eagle Media (DMEM) (Gibco-BRL) containing 10% Fetal calf serum (FCS) (Sigma) and 1 mg/ml G418 (Gibco-BRL). Cells were seeded the night before (1.5×10^4 cells/well) in 96-well tissue-culture sterile plates. Compound and no compound controls were prepared in DMEM containing 4% FCS, 1:100 Penicillin/Streptomysin (Gibco-BRL), 1:100 L-glutamine and 5% DMSO in the dilution plate (0.5% DMSO final concentration in the assay). Compound/DMSO mixes were added to the cells and incubated for 4 days at 37° C. After 4 days, cells were first assessed for cytotoxicity using alamar Blue (Trek Diagnostic Systems) for a CC50 reading. The toxicity of compound (CC50) was determined by adding 1/10th volume of alamar Blue to the media incubating the cells. After 4 h, the fluorescence signal from each well was read, with an excitation wavelength at 530 nm and an emission wavelength of 580 nm, using the Cytofluor Series 4000 (Perspective Biosystems). Plates were then rinsed thoroughly with Phosphate-Buffered Saline (PBS) (3 times 150 μl).
As a secondary assay, EC50 determinations from the replicon FRET assay were confirmed in a replicon luciferase reporter assay. Utilization of a replicon luciferase reporter assay was first described by Krieger et al (Krieger N, Lohmann V, and Bartenschlager R, J. Viral. 75(10):4614-4624 (2001)). The replicon construct described for our FRET assay was modified by inserting cDNA encoding a humanized form of the Renilla luciferase gene and a linker sequence fused directly to the 3′-end of the luciferase gene. This insert was introduced into the replicon construct using an Asc1 restriction site located in core, directly upstream of the neomycin marker gene. The adaptive mutation at position 1179 (serine to isoleucine) was also introduced (Blight K J, Kolykhalov, A A, Rice, C M, Science 290(5498):1972-1974). A stable cell line constitutively expressing this HCV replicon construct was generated as described above. The luciferase reporter assay was set up as described for the HCV replicon FRET assay with the following modifications. Following 4 days in a 37° C./5% CO2 incubator, cells were analyzed for Renilla Luciferase activity using the Promega Dual-Glo Luciferase Assay System. Media (100 μl) was removed from each well containing cells. To the remaining 50 μl of media, 50 μl of Dual-Glo Luciferase Reagent was added, and plates rocked for 10 min to 2 h at room temperature. […]

SMILES | IC50 ([1]; class symbols) | EC50 ([2]; class symbols) | IC50 ([1]; numeric values) | EC50 ([2]; numeric values)
CO[C@@]12C[C@@H](C(=O)N[C@]3(C(=O)NS(=O)(=O)C4CC4)C[C@H]3C3CC3)N(C1)C(=O)[C@H](C(C)(C)C)NC(=O)OCCC(C)(C)CCCc1ccccc1-c1ccc2cc1 [Example 3] | 4 to 7 nM | 21 to 30 nM |  | 
C=C[C@@H]1C[C@]1(NC(=O)[C@@H]1C[C@]2(OC)CN1C(=O)[C@H](C(C)(C)C)NC(=O)OCCCCc1cc2ccc1-c1ccccc1)C(=O)NS(=O)(=O)C1CC1 [Example 8] | 8 to 11 nM | 21 to 30 nM |  | 
C=C[C@@H]1C[C@]1(NC(=O)[C@@H]1C[C@]2(OC)CN1C(=O)[C@H](C(C)(C)C)NC(=O)OCCCCCCc1ccccc1-c1ccc2cc1)C(=O)NS(=O)(=O)C1CC1 [Example 1] |  |  | 1 nM | 5 nM
